This is an account of results in publication PMC6713233 (Toxicology in vitro : an international journal published in …, 2019).

SMILES strings stand for the structures. “And” between values parts separate entries of the source, which are not always exact repeats. Identical values can stand only once. Like-named read-outs stand apart in the source and are kept apart here.

The target in data set [1] is T1, recombinant human AChE (Homo sapiens, UniProt P22303). Briefly: biochemical. Type of data set: biochemical. The conditions noted are these: for Emax: read-out: efficacy (%), Fluorescence.
T1 sequence (P22303 32-614): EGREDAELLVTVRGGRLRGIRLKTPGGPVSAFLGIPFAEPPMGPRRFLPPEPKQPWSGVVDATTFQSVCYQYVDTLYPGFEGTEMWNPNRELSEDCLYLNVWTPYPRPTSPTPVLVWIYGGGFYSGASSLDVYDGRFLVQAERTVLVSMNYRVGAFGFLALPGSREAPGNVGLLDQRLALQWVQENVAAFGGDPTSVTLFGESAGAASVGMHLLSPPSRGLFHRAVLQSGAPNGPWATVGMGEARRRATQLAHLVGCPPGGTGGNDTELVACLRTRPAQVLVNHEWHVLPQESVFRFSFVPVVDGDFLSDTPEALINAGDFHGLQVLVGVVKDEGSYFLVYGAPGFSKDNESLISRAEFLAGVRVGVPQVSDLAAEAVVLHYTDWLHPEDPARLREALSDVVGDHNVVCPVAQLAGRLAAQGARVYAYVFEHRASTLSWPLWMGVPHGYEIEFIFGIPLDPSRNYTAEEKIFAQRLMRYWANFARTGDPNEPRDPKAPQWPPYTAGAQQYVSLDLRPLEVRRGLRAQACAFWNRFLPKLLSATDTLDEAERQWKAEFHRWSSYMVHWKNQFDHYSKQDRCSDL
In data set [2] the target is T1, recombinant human AChE. Description: biochemical. In kind it is biochemical. As to conditions: for Emax: read-out: efficacy (%), Colorimetric.
In data set [3] the target is T1, recombinant human AChE. Description: biochemical.
Data set [4] addresses T1, recombinant human AChE. Briefly: biochemical. The conditions noted are these: for Emax: read-out: efficacy (%), Fluorescence, +Rat MS. In kind it is biochemical.
Data set [5] addresses T1, recombinant human AChE. Type of data set: biochemical.
Data set [6] addresses T1, recombinant human AChE. Description: biochemical. As to conditions: for Emax: read-out: efficacy (%), Colorimetric, +Rat MS. Type of data set: biochemical.
The next data set relates to cholinesterase. As to conditions: following exposure; rats, mice, birds, fish, and farm animals; ref International Programme on Chemical Safety, 1989; cited from earlier work.
The next data set deals with AChE. The conditions noted are these: following exposure; ref International Programme on Chemical Safety, 1989; cited from earlier work.
The mark [7] stands for this setting: IC50 (μM), Colorimetric, +Human MS.

As for `COP(=O)(NC(C)=O)SC` (stereo not shown) [Acephat], the “IC50 (μM), Fluorescence” value on recombinant human AChE [1] is reported as “Inactive”. Further, the “IC50 (μM), Colorimetric” value at recombinant human AChE [2] is given as “Inactive”.

The term IC50 denotes the concentration that gives 50% inhibition. On to `CCOP(=S)(OCC)OC(Cl)C(Cl)(Cl)Cl` (stereo not shown) [Chlorethoxyfos], for which the Emax is 99.2% on recombinant human AChE [1], 46.3% at recombinant human AChE [2], 100% at recombinant human AChE [4] and 105% on recombinant human AChE [6]. Further, the “efficacy (%), Colorimetric, +Human MS” value at recombinant human AChE [3] is on record as 10.88±0.00 (−102.91±1.64) %. In addition, the IC50 on recombinant human AChE [3] (setting [7]) came out at 10.9 µM. Moreover, the “efficacy (%), Fluorescence, +Human MS” value at recombinant human AChE [5] is given as 31.57±8.80 (−99.07±7.79) %.

Turning to `CCOP(=S)(OCC)Oc1nc(Cl)c(Cl)cc1Cl` [Chlorpyrifos], the Emax on recombinant human AChE [1] is 100%; at recombinant human AChE [4], 89.8%; at recombinant human AChE [6], 98.8%. Further, the “IC50 (μM), Colorimetric” value at recombinant human AChE [2] is listed as “Inactive”. Also, the “efficacy (%), Colorimetric, +Human MS” value at recombinant human AChE [3] is listed as 1.71±0.47 (−93.65±1.00) %. Also, on recombinant human AChE [3], the “inhibition of AChE activity” value is reported as “did not inhibit AChE activity”. Besides, the IC50 on recombinant human AChE [3] (setting [7]) was 1.71 µM; at recombinant human AChE [3] (IC50, inhibition of AChE), 1.31 µM and 0.78 µM and 0.8 µM. The “efficacy (%), Fluorescence, +Human MS” value at recombinant human AChE [5] is given as 1.22±0.00 (−102.89±2.97) %.

Consider `CCOP(=S)(OCC)Oc1ccc2c(C)c(Cl)c(=O)oc2c1` [Coumaphos], for which the Emax at recombinant human AChE [1] is 83.3%; on recombinant human AChE [4] it was 95%; on recombinant human AChE [6], 96.5%. For the same compound, the “IC50 (μM), Colorimetric” value at recombinant human AChE [2] was “Inactive”. On recombinant human AChE [3], the “efficacy (%), Colorimetric, +Human MS” value is 8.06±1.94 (−98.15±5.15) %. For the same compound, the IC50 at recombinant human AChE [3] (setting [7]) turned out to be 8.06 µM. For the same compound, the “efficacy (%), Fluorescence, +Human MS” value at recombinant human AChE [5] is 12.95±1.05 (−67.18±4.87) %.

As for `CCOP(=S)(OCC)Oc1cc(C)nc(C(C)C)n1` [Diazinon], the Emax was 96.3% on recombinant human AChE [1], 102% on recombinant human AChE [2] and 73.1% at recombinant human AChE [6]. The “IC50 (μM), Colorimetric, +Human MS” value on recombinant human AChE [3] is given as “Inactive”. The “IC50 (μM), Fluorescence, +Rat MS” value on recombinant human AChE [4] is given as “Inactive”. For the same compound, at recombinant human AChE [5], the “efficacy (%), Fluorescence, +Human MS” value is on record as 113.22±7.66 (−71.22±6.26) %.

In the case of `CCOP(=O)(OCC)Oc1cc(C)nc(C(C)C)n1` [Diazoxon], the Emax on recombinant human AChE [1] was 77.7%. At recombinant human AChE [2], the half-inhibitory concentration (IC50) turned out to be 1.33 µM and the Emax was 95.2%.

As for `COP(=O)(OC)OC=C(Cl)Cl` [Dichlorvos], the Emax was 76.8% at recombinant human AChE [1] and 34.9% at recombinant human AChE [2].

Consider `COP(=O)(OC)O/C(C)=C/C(=O)N(C)C` [Dicrotophos], for which the figures for the Emax on recombinant human AChE [1] and at recombinant human AChE [2] were 82.7% and 32.5%, respectively.

Regarding `CNC(=O)CSP(=S)(OC)OC` [Dimethoate], at recombinant human AChE [1], the “IC50 (μM), Fluorescence” value is reported as “Inactive”. Besides, in the data set with cholinesterase, the “cholinesterase activity in animals” value is “cholinesterase activity was inhibited”. In addition, the “IC50 (μM), Colorimetric” value on recombinant human AChE [2] is “Inactive”. Besides, in the data set with AChE, the “AChE inhibition in human volunteers” value is recorded as “no AChE inhibition was observed”. Also, at recombinant human AChE [3], the “IC50 (μM), Colorimetric, +Human MS” value is “Inactive”. The “IC50 (μM), Fluorescence, +Rat MS” value on recombinant human AChE [4] was “Inactive”. Moreover, the “IC50 (μM), Fluorescence, +Human MS” value at recombinant human AChE [5] is reported as “Inactive”. Further, the “IC50 (μM), Colorimetric, +Rat MS” value at recombinant human AChE [6] was “Inactive”.

For `CCCSP(=O)(OCC)SCCC` [Ethoprop], the Emax on recombinant human AChE [2] was 43.4%.

Consider `CCOP(=O)(SC(C)CC)N1CCSC1=O` (stereo not shown) [Fosthiazate], for which, at recombinant human AChE [1], the “IC50 (μM), Fluorescence” value is recorded as “Inactive” and the “inhibitory effect on AChE activity (in words)” value (shortened to “inhibitory effect”) is reported as “did not show inhibition effects”. Further, on recombinant human AChE [2], the “IC50 (μM), Colorimetric” value is “Inactive” and the “inhibitory effect” value is recorded as “did not show inhibition effects”.

`CCOC(=O)CC(SP(=O)(OC)OC)C(=O)OCC` (stereo not shown) [Malaoxon]: the Emax is 95.2% at recombinant human AChE [1] and 91.1% at recombinant human AChE [2].

With `CCOC(=O)CC(SP(=S)(OC)OC)C(=O)OCC` (stereo not shown) [Malathion], the Emax is 77% on recombinant human AChE [1] and 59.4% at recombinant human AChE [6]. The “IC50 (μM), Colorimetric” value at recombinant human AChE [2] is “Inactive”. For the same compound, the “IC50 (μM), Colorimetric, +Human MS” value at recombinant human AChE [3] is listed as “Inactive”. Also, the “IC50 (μM), Fluorescence, +Rat MS” value on recombinant human AChE [4] was “Inactive”. The “IC50 (μM), Fluorescence, +Human MS” value on recombinant human AChE [5] is reported as “Inactive”.

`COP(N)(=O)SC` (stereo not shown) [Methamidophos]: the Emax at recombinant human AChE [1] was 103%; at recombinant human AChE [2], 38.7%.

Consider `COP(=O)(OC)OC(Br)C(Cl)(Cl)Br` (stereo not shown) [Naled], for which the “IC50 (μM), Fluorescence” value at recombinant human AChE [1] is “Inactive”. Besides, at recombinant human AChE [2], the IC50 stood at 61.3 µM and the Emax was 46.5%.

Regarding `CNC(=O)CSP(=O)(OC)OC` [Omethoate], on recombinant human AChE [1], the half-inhibitory concentration (IC50) was found to be 68.9 µM and the Emax was 46.3%. Besides, the “IC50 (μM), Colorimetric” value at recombinant human AChE [2] is listed as “Inactive”.

For `CCOP(=S)(OCC)SCSCC` [Phorate], the figures for the Emax at recombinant human AChE [1], at recombinant human AChE [4] and at recombinant human AChE [6] were 44.4%, 72% and 96.3%, respectively. Also, the “IC50 (μM), Colorimetric” value at recombinant human AChE [2] is “Inactive”. The “IC50 (μM), Colorimetric, +Human MS” value on recombinant human AChE [3] was “Inactive”. Further, the “inhibitory effect” value on recombinant human AChE [3] is reported as “did not show inhibitory effects”. Moreover, the “IC50 (μM), Fluorescence, +Human MS” value on recombinant human AChE [5] is on record as “Inactive”.

Turning to `COP(=S)(OC)SCN1C(=O)c2ccccc2C1=O` [Phosmet], the Emax is 65.3% on recombinant human AChE [1] and 43.5% at recombinant human AChE [4]. Besides, the “IC50 (μM), Colorimetric” value at recombinant human AChE [2] is given as “Inactive”. Moreover, on recombinant human AChE [3], the “IC50 (μM), Colorimetric, +Human MS” value is given as “Inactive”. The “IC50 (μM), Fluorescence, +Human MS” value at recombinant human AChE [5] is reported as “Inactive”. Besides, at recombinant human AChE [6], the “IC50 (μM), Colorimetric, +Rat MS” value is on record as “Inactive”.

Take `CCN(CC)c1nc(C)cc(OP(=S)(OC)OC)n1` [Pirimiphos-methyl]: the “IC50 (μM), Fluorescence” value on recombinant human AChE [1] is “Inactive”. Further, the “IC50 (μM), Colorimetric” value at recombinant human AChE [2] was “Inactive”. The “IC50 (μM), Colorimetric, +Human MS” value on recombinant human AChE [3] was “Inactive”. For the same compound, on recombinant human AChE [4], the concentration for half-maximal inhibition (IC50) came out at 41.7 µM and the Emax worked out at 42%. Also, the “IC50 (μM), Fluorescence, +Human MS” value at recombinant human AChE [5] was “Inactive”. For the same compound, the “IC50 (μM), Colorimetric, +Rat MS” value on recombinant human AChE [6] is recorded as “Inactive”.

As to `CCCSP(=O)(OCC)Oc1ccc(Br)cc1Cl` (stereo not shown) [Profenofos], the Emax on recombinant human AChE [1] is 93.7%; at recombinant human AChE [2], 83.2%.

In the case of `CCOP(=S)(Oc1cnc(C(C)(C)C)nc1)OC(C)C` (stereo not shown) [Tebupirimfos], the Emax is 90.4% at recombinant human AChE [1], 53% at recombinant human AChE [2], 91% on recombinant human AChE [4] and 100% on recombinant human AChE [6]. In addition, at recombinant human AChE [3], the “efficacy (%), Colorimetric, +Human MS” value is 14.39±2.31 (−95.21±2.02) %. Moreover, at recombinant human AChE [3] (setting [7]), the half-inhibitory concentration (IC50) was 14.4 µM. Further, the “efficacy (%), Fluorescence, +Human MS” value at recombinant human AChE [5] is 48.81±5.61 (−70.67±3.28) %.

For `CCOP(=S)(OCC)SCSC(C)(C)C` [Terbufos], the “IC50 (μM), Fluorescence” value at recombinant human AChE [1] was “Inactive”. Moreover, at recombinant human AChE [2], the “IC50 (μM), Colorimetric” value is reported as “Inactive”. In addition, the “efficacy (%), Colorimetric, +Human MS” value on recombinant human AChE [3] is recorded as 31.74±5.73 (−57.67±2.16) %. In addition, the concentration for half-maximal inhibition (IC50) on recombinant human AChE [3] (setting [7]) was 31.7 µM. The Emax is 85.3% at recombinant human AChE [4] and 95.7% at recombinant human AChE [6]. In addition, the “IC50 (μM), Fluorescence, +Human MS” value at recombinant human AChE [5] is “Inactive”.

`CCCCSP(=O)(SCCCC)SCCCC` [Tribufos]: the Emax at recombinant human AChE [1] is 60.8%. In addition, the “IC50 (μM), Colorimetric” value on recombinant human AChE [2] is given as “Inactive”.

As for `COP(=O)(OC)C(O)C(Cl)(Cl)Cl` (stereo not shown) [Trichlorfon], the Emax at recombinant human AChE [1] was 91.5%; at recombinant human AChE [2], 30%.

Regarding `COP(=O)(OC)O/C(=C\Cl)c1cc(Cl)c(Cl)cc1Cl` [Z-Tetrachlorvinphos], at recombinant human AChE [1], the Emax was 75.7%. The “IC50 (μM), Colorimetric” value on recombinant human AChE [2] is reported as “Inactive”.
